From patent US11014908B2, “Chemical compounds” (Pfizer Inc., priority 2018, dated 2021)

Assays:
HbS [1] = target: T1, HbS (Homo sapiens, UniProt P68871+P69905, E7V); assay: 'R'-'T' assay (conversion of oxy HbS to deoxy HbS under deoxygenating conditions); format: biochemical; details: 50% inhibition of HbS 'R'-'T' conversion; 3 uM HbS, <1% O2
T1 construct: HbS was obtained from the blood of homozygous S/S patients; from tissue; host or cells: red blood cells of homozygous S/S patients
Procedure, shortened: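 Oxy HbS diluted to 3 µM in 100 mM potassium phosphate pH 7.4, incubated 1 h at room temperature with compound, then held under <1% O2 for 2 h. Conversion followed by background-corrected 415/430 nm absorbance ratio at 0, 90 and 120 min; percent effect normalized to tucaresol, IC50 from concentration series.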

HbS [2] = target: T1, HbS; assay: HbS polymerization assay (delay time); format: biochemical; details: 0.15 mM HbS, n=3, vs DMSO; for Increase in DT for 25% HbS Occ: 0.075 mM compound
Excerpt: This assay is used to determine the degree of inhibition of polymerization of HbS by compounds of the invention at varying degrees of HbS occupancy. The method used for the assay was adapted from that described in He and Russell (He, Z. and J. E. Russell, “A high-Throughput Microplate Method for Assessing Aggregation of Deoxygenated Hemoglobin S Heterotetramers in Vitro”, Anal Biochem 306(2): 349-352 (2002)).
Purified HbS was exchanged into 1.25 M potassium phosphate, pH=7.4 and concentrated to 1.1 mM. The hemoglobin concentration was fixed at 0.15 mM, and the HbS was diluted to the appropriate concentration using 1.25 M potassium phosphate, pH=7.4. The compound of the invention was added to 0.15 mM HbS in the following concentrations: […], 0.075 mM (25%) and 0.15 mM (50%). As these compounds are ditopic binders, the concentration was doubled to calculate the % coverage, ie. 0.15*0.5=0.075*2=0.15. DMSO concentrations were matched for all compound concentrations, as well as no-compound control, and HbA. Following incubation, 33.5 μL of HbS solution was added to each well of a Costar 96-well half area plate. To induce deoxygenation, 16.5 μL of 1 M sodium dithionite, prepared in 1.25 M potassium phosphate, was added to each well for a final assay concentration of 330 mM, and mixed thoroughly. Fifty μL of mineral oil was overlaid over the solution in each well to prevent reoxygenation, and the plate was placed at 4° C. for five minutes. Following cold incubation, the plates were placed in a spectrophotometer that had been equilibrated at 37° C., to initiate the polymerization process (temperature jump). The reaction was monitored at 700 nm for 40 minutes, with data points collected every 30 seconds. Four wells were used for each condition, and the data averaged at every point for analysis. Data was analyzed using Graph Pad Prism, and the data was fit to a Boltzman sigmoidal equation, in which V50 (t1/2) was taken as the delay time. The percent change was calculated using the DMSO as the initial delay time. Error in percent change was compounded using the V50 errors generated when fit to the Boltzman sigmoidal equation.
Delay in HbS polymerization, as measured by increasing delay time as a function of % HbS occupancy (% HbS Occ), is reported in Table 5 below as the increase in delay time (DT) for 10%, 25% and 50% HbS occupancy (n=3).

[3] = Single dose study in sickle Townes mice: exposure in whole blood; format: in vivo; details: male, Townes (sickle cell disease model), mouse, SCD mice, n=3
Description: (§1) In Vivo Studies Mouse Model
(§2) The effect of the compounds of the invention was evaluated in-male sickle Townes mice in a single dose study. Compounds of the invention were administered in amounts set out in Tables 7, 8 and 9 that follow by oral gavage. Control mice received vehicle. Blood (50 μL) was drawn at 0.5 h, 1 h, 4 h, 7 h, 10 h, and 24 h. To measure exposure in whole blood, 20 μL sample was used. Blood drawn at 0.5 h was also evaluated for cell sickling.

[4] = system: Red Blood Cells (RBCs) from treated animals; assay: Single dose study in sickle Townes mice: RBC sickling under hypoxia; format: in vivo, mouse; details: 0.5 h, SCD mice, n=3
Description: as §1, §2
Red Blood Cells (RBCs) from treated animals were diluted to ˜10^7 cells/mL with 300 μL Hemeox solution in a 24-well plate and incubated in a hypoxia chamber, 5% CO2 and 3% O2 for 4 h. Cells were then fixed at room temperature for 30 minutes in sickling fixative solution and stained with TER119 alexa 488 conjugated antibody (BioLegend) for 30 minutes at room temperature, washed and plated at 50,000 cells/well with 200 μL of hemox buffer (TCS Scientific). Data were visualized using Graph Pad Prism (Version 5). Results are expressed as mean±standard error of the mean (SEM). Statistical analysis was made using a non-parametric one-way analysis of variance (ANOVA) followed by a Dunnett's multiple comparison. Significance was accepted when p<0.01.

[5] = single dose 30 mg/kg oral gavage
[6] = single dose 100 mg/kg oral gavage
[7] = single dose 300 mg/kg oral gavage
[8] = single dose 900 mg/kg oral gavage
[9] = single dose 10 mg/kg oral gavage
[10] = single dose 40 mg/kg oral gavage
[11] = single dose 220 mg/kg oral gavage
[12] = single dose 490 mg/kg oral gavage

IC50 (HbS [1]) [µM] | Increase in DT for 25% HbS Occ (HbS [2]) [%] | concentration at 0.5 h [3, 5] [µM] | concentration at 0.5 h [3, 6] [µM] | concentration at 0.5 h [3, 7] [µM] | concentration at 0.5 h [3, 8] [µM] | Increase in DT for 10% HbS Occ (HbS [2]; 0.03 mM compound) [%] | Increase in DT for 50% HbS Occ (HbS [2]; 0.15 mM compound) [%] | concentration at 0.5 h [3, 9] [µM] | concentration at 0.5 h [3, 10] [µM] | concentration at 0.5 h [3, 11] [µM] | concentration at 0.5 h [3, 12] [µM] | SMILES | % Change in RBC Sickling [4, 5] [%] | % Change in RBC Sickling [4, 6] [%] | % Change in RBC Sickling [4, 7] [%] | % Change in RBC Sickling [4, 8] [%] | % Change in RBC Sickling [4, 9] [%] | % Change in RBC Sickling [4, 10] [%] | % Change in RBC Sickling [4, 11] [%] | % Change in RBC Sickling [4, 12] [%]
4.62 | 64 ± 6 | 14.7 | 303 | 1140 | 1500 |  |  |  |  |  |  | C[C@H](Oc1cc2cc(F)cc(F)c2nc1N)c1cc(C(=O)O)ccc1-n1cccn1 [Example 21, 3-{(1S)-1-[(2-amino-6,8-difluoroquinolin-3-yl)oxy]ethyl}-4-(1H-pyrazol-1-yl)benzoic Acid] | 2.03 | −0.02 | 24.6 | 29.0 |  |  |  | 
4.8 | 70 ± 8 |  |  |  |  | 18 ± 5 | 74 ± 21 | 35.8 | 285 | 1450 | 2870 | C[C@H](Oc1cc2cc(F)ccc2nc1N)c1nc(O)ccc1-n1cccn1 [Example 58, 6-{(1S)-1-[(2-amino-6-fluoroquinolin-3-yl)oxy]ethyl}-5-(1H-pyrazol-1-yl)pyridin-2-ol] |  |  |  |  | −6.2 | 4.6 | 50.8 | 48.3
